Source: patent publication US7723564B2, “Compositions and methods for modulation of KSR1 and KSR2 interactions” (Board of Regents of the University of Nebraska, priority 2006, dated 2010)

Experiments:
AMPK-KSR2 interaction = test: Coimmunoprecipitation of AMPK with KSR2; type: cell-based; conditions: AMPK expressed in cells with KSR2; FIG. 22
From the text: (§1) FIG. 22. is a series of western blots showing that AMPK coimmunopreciptates with KSR1 and KSR2.
(§2) AMP activated protein kinase (AMPK) is a critical regulator of catabolism in cells, promoting the synthesis of ATP and inhibiting the anabolic effects of other hormones to promote […]. AMPK is an indirect target of the widely prescribed anti-diabetic drug metformin. […] When AMPK is expressed in cells with either KSR or KSR2, AMPK is found to precipitate with either protein. AMPK is not precipitated in the absence of KSR proteins.

AMPK-KSR1 interaction = test: Coimmunoprecipitation of AMPK with KSR1; type: cell-based; conditions: AMPK expressed in cells with KSR1; FIG. 22
From the text: as §1, §2

CC[C@H]1/C=C/C=C/C[C@@H](C)[C@H](O)[C@@](C)(O)C(=O)[C@@H](C)[C@H](O)[C@@H](C)C(=O)[C@@H](C)[C@H](O)[C@@H](C)/C=C/C(=O)O[C@@H]2[C@H](C)[C@H](CC1)O[C@]1(CC[C@H](C)[C@H](C[C@@H](C)O)O1)[C@H]2C [oligomycin]
Effect on interaction of AMPK with KSR2 (AMPK-KSR2 interaction): does not alter
Effect on interaction of AMPK with KSR1 (AMPK-KSR1 interaction): does not alter
